# Experimental data published in ChEMBL document CHEMBL3860041, “Synthesis, biological evaluation and molecular modeling study of some new methoxylated 2-benzylthio-quinazoline-4(3H)-ones as nonclassical antifolates” (Bioorg Med Chem Lett, 2016).
# Assays:
# [1] = test system: Escherichia coli; assay: Antimicrobial activity against Escherichia coli IFO 3301 at 200 ug/disc measured after 24 hrs by agar disc-diffusion method; format: functional; details: IFO 3301, 24 h, read-out: DIZ
# [2] = test system: Bacillus subtilis; assay: Antimicrobial activity against Bacillus subtilis IFO 3007 measured after 24 hrs by microdilution method; format: functional; details: IFO 3007, 24 h
# [3] = test system: Candida albicans; assay: Antimicrobial activity against Candida albicans IFO 0583 at 200 ug/disc measured after 48 hrs by agar disc-diffusion method; format: functional; details: IFO 0583, 48 h, read-out: DIZ
# [4] = test system: Staphylococcus aureus; assay: Antimicrobial activity against Staphylococcus aureus IFO 3060 measured after 24 hrs by microdilution method; format: functional; details: IFO 3060, 24 h
# [5] = test system: Bacillus subtilis; assay: Antimicrobial activity against Bacillus subtilis IFO 3007 at 200 ug/disc measured after 24 hrs by agar disc-diffusion method; format: functional; details: IFO 3007, 24 h, read-out: DIZ
# [6] = test system: Escherichia coli; assay: microbe, parasite or virus in culture; details: IFO 3301, 24 h
# Description: Antimicrobial activity against Escherichia coli IFO 3301 measured after 24 hrs by microdilution method
# [7] = test system: Staphylococcus aureus; assay: Antimicrobial activity against Staphylococcus aureus IFO 3060 at 200 ug/disc measured after 24 hrs by agar disc-diffusion method; format: functional; details: IFO 3060, 24 h, read-out: DIZ
# [8] = test system: Pseudomonas aeruginosa; assay: Antimicrobial activity against Pseudomonas aeruginosa IFO 3448 at 200 ug/disc measured after 24 hrs by agar disc-diffusion method; format: functional; details: IFO 3448, 24 h, read-out: DIZ
SMILES,zone of inhibition at 200 µg/disc [1] [mm],MIC [2] [µg/mL],zone of inhibition at 200 µg/disc [3] [mm],MIC [4] [µg/mL],zone of inhibition at 200 µg/disc [5] [mm],MIC [6] [µg/mL],zone of inhibition at 200 µg/disc [7] [mm],zone of inhibition at 200 µg/disc [8] [mm]
COc1cc2nc(SCc3cc(OC)c(OC)c(OC)c3)n(Cc3ccccc3)c(=O)c2cc1OC,16,4,8,4,22,8,20,8
COc1cc(CSc2nc3ccc(Cl)cc3c(=O)n2-c2ccccc2)cc(OC)c1OC,16,4,8,8,20,8,17,8
